# Patent publication US20100173936A1 (priority 2008, published 2010)
# How the values were obtained:
# Format in all cases: in vivo, human
# [1] = Adverse events in the diabetic hypertensive crossover study (cough, angioedema, potassium/creatinine, hypotension)
# Source text: (§1) Subjects with hypertension requiring therapy were excluded from the study as one of the goals of the study was to measure the anti-inflammatory effects of an ACE inhibitor independently of its blood pressure lowering effects. Subjects on lipid lowering therapy (e.g., statin therapy) at the time of enrollment continued their therapy without change throughout the study. Written informed consent was obtained from all subjects. […] After the initial 8 weeks of treatment, there was a 4 week washout period. The subjects then received in a crossover fashion the alternate pharmacological regimen. Allocation concealment was maintained until the end of the study. Pill counts were obtained at the end of the treatment period to determine compliance (13). Subjects were advised to self-administer half of the full dose during the initial 2 days of therapy, after which they were to take the full study dose at the same time each morning. The total study period was 22 weeks. […] Blood pressure was checked with at least three separate measurements that were taken approximately five minutes apart using an Omron sphygmomanometer.
# [2] = system: adiponectin; assay: Serum adiponectin enzyme immunoassay (EIA)
# Description: (§2) An aliquot of each sample was then drawn, and an enzyme immunoassay (EIA; Cayman Chemical, Ann Arbor, Mich.) for serum adiponectin and leptin was performed on each sample in triplicate according to well-established protocols (45). A total of 50 μl of serum were used for the analysis. The levels of total serum adiponectin and leptin were determined on a plate reader at an optical density of 420 nm. No interference by quinapril or its metabolites was found in any of the assays.
# [3] = HOMA-IR index of insulin resistance
# Source text: Without wishing to be bound by any particular theory, it was thought that insulin resistance can play an important role in hyperglycemia in type 2 diabetic subjects, and can eventually induce the development of diabetic microangiopathy (20). Indeed, to achieve glycemic control and prevent these complications, several oral hypoglycemic agents that improve insulin resistance, such as thiazolidinediones and biguanides, have been developed and are currently available clinically (21,22). Furthermore, insulin resistance is proposed to play important roles in the pathogenesis of cardiovascular diseases (23,24), the most common cause of death in diabetic subjects. Therefore, a clinical and epidemiological evaluation was undertaken with the subjects described in Example 1 in order to evaluate insulin resistance simply and accurately in the individual diabetic subjects with hypertension. Many investigators have studied simple surrogate indices of insulin resistance in comparison with the index assessed by euglycemic-hyperinsulinemic clamp (clamp-IR); for example, fasting plasma insulin (25), homeostasis model assessment (HOMA) of insulin resistance (HOMA-IR) (26), and the fasting glucose-to-insulin ratio (27). […]
# [4] = system: glycosylated hemoglobin; assay: Glycosylated hemoglobin in the diabetic hypertensive crossover study
# [5] = Blood pressure in randomized crossover study, Type II diabetes mellitus with hypertension
# Description: as §1, with “subjects. All subjects were evaluated at the time of enrollment. The subjects received nutritional counseling and were advised to record their weight and calorie counts weekly. A nutritionist was available for counseling throughout the study. Blood samples were drawn before and at the end of therapy at a similar time of day while subjects were fasting.” for “subjects.”
# [6] = system: PAI-1; assay: Serum soluble PAI-1 ELISA in subjects with metabolic syndrome; conditions: after four weeks of therapy, quinapril 20 mg/day, alpha lipoic acid 300 mg/day, from baseline
# Description: […] Blood was collected at these time periods, and serum levels of soluble PAI-1 and VCAM-1 were determined using an enzyme-linked immunosorbent assay (ELISA). Further, endothelial function in each of the subjects was also determined by flow mediated dilation (FMD) of the brachial artery, utilizing the high resolution ultrasound technique described herein above.
# [7] = system: urinary albumin; assay: Proteinuria, 24 hour urine collection, standard chemical protein analysis; conditions: versus pretreatment, in words (FIG. 1)
# Description: Upon collection of each urine sample, the urine was quickly analyzed, and protein analysis was performed via a standard chemical analysis (Quest Laboratory, Scranton, Pa.).
# [8] = system: leptin; assay: Serum leptin enzyme immunoassay (EIA)
# Description: as §2
# [9] = Brachial artery reactivity testing (BART), flow-mediated vasodilation, diabetic hypertensive subjects
# Source text: Briefly, the subjects were positioned in the supine position with the arm in a comfortable position for imaging the brachial artery. A blood pressure cuff was then placed on the forearm, after which a baseline rest image was acquired. The brachial artery was imaged above the antecubital fossa in the longitudinal plane, and a segment with clear anterior and posterior intimal interfaces between the lumen and vessel wall was selected for continuous 2D gray-scale imaging. Blood flow velocity was estimated by time-averaging the pulsed Doppler velocity signal obtained from a mid-artery sample volume. […] After cuff deflation, the longitudinal image of the artery was recorded continuously from 30 seconds before to 2 minutes after cuff deflation. […] The diameter of the brachial artery was measured from longitudinal images in which the lumen-intima interface was visualized on both the near (anterior) and far (posterior) walls. Once the image for analysis was chosen, the boundaries for diameter measurements were identified manually with electronic calipers (Medical Imaging Application Vascular Tools, Coralville, Iowa), and the average diameter was determined from at least 3 different diameter measurements determined along a segment of the vessel. Brachial artery diameter was measured at the same time in the cardiac cycle by use of electrocardiogram (ECG) gating during image acquisition. […]
# [10] = system: LDL; assay: LDL oxidation lag time, CuSO4 assay on LDL isolated from treated subjects
# Source text: Although, the mechanisms of this damage have yet to be clearly established and may involve the inactivation of nitric oxide (NO) by oxygen-derived free radicals such as superoxide (33), it is clear that this inflammatory response affects the gene expression of regulatory molecules, such as vascular cell adhesion molecule and tumor necrosis factor-alpha (34-36), which in turn promote foam cell formation. In this regard, a reduction in NO levels along with an increase in ox-LDL may function as immunomodulators of the atherosclerotic process (37) and, indeed, recent studies imply that ox-LDL stimulates an immunological response through the formation of autoantibodies, resulting in further damage to the endothelium and acceleration of the atherosclerotic process (38,39). This antibody response may represent a marker for the extent of atherosclerosis seen in individuals. […] The LDL was then oxidized to ox-LDL by an in vitro assay utilizing CuSO4 (52). The lag time indicating the susceptibility of the LDL to oxidize was measured using a spectrophotometer at […] (42). Values were performed in triplicate.
# [11] = serum, diabetic hypertensive subjects
# [12] = diabetic hypertensive subjects, quinapril 40 mg/day, alpha lipoic acid 600 mg/day, 8 weeks
smiles,measurement,setting,value
"CCOC(=O)[C@H](CCc1ccccc1)N[C@@H](C)C(=O)N1Cc2ccccc2C[C@H]1C(=O)O [Quinapril, quinapril]",hypotension (systolic BP less than 100 mm Hg),[1]; during the study,No subject
same,rise in serum potassium or creatinine of greater than 20 percent,[1]; number of subjects affected,1 out of 40
same,incidence of cough,"[1]; quinapril 40 mg/day, alpha lipoic acid 600 mg/day",14%
same,angioedema,[1]; throughout the study,No angioedema
same,serum levels of adiponectin,"[2]; over pretreatment, in words",significantly increased
same,Adiponectin,[2]; [11],122% of % of pretreatment
same,serum HOMA-IR,"[3]; end of treatment, pretreatment 3.01±0.33 U/ml",1.83 ± 0.25
same,reduction in HOMA-IR from pretreatment baseline,[3]; in vivo,40%
same,Glycosylated Hgb,[4]; [12],7.6 ± 1.5%
same,change in glycosylated hemoglobin (Hgb),"[4]; from pretreatment and between the two treatment arms, in words",no significant change
same,Diastolic BP,[5]; [12],77.9 ± 10.0 mmHg
same,Systolic BP,"[5]; diabetic hypertensive subjects, quinapril 40 mg/day, alpha lipoic acid 600 mg/day, 8 weeks, mean ± SD",133.4 ± 11.7 mmHg
same,change in systolic and diastolic blood pressure after the follow-up period,"[5]; versus pretreatment, in words",significant reduction
same,reduction of serum PAI-1 levels,[6],22%
same,ratio of urinary albumin to creatinine,[7],reduced significantly
same,urinary albumin,[7],reduced significantly
same,Leptin,[8]; [11],51% of % of pretreatment
same,serum levels of leptin,"[8]; versus pretreatment, in words",significantly reduced
same,increase in flow mediated dilation of the brachial artery as compared to baseline,[9]; at 24 weeks as printed,59%
same,flow mediated dilation of the brachial artery,"[9]; post-treatment, pretreatment 3.86±0.55 percent",6.02±0.80%
same,increase of lag time of LDL oxidation from pretreatment,"[10]; human, in vivo",23%
same,"lag time of LDL oxidation, Post-treatment",[10]; post-treatment,71.0 ± 13.9 s
